{"source": "patent US10392363B2", "about": "“Methods for treating protozoan infections” (Neoculi Pty Ltd., priority 2014, dated 2019)", "data": [{"test_system": "Trypanosoma cruzi (Tulahuen trypomastigotes expressing β-galactosidase, in L6 cells)", "experiment": "In vitro T. cruzi assay for determination of IC50", "assay_type": "cell-based", "conditions": "96 h incubation", "protocol": "(§1) The T. cruzi assay uses Tulahuen trypomastigotes expressing the β-galactosidase gene. The parasites were maintained in vitro by serial passage in L6 cells. […] Extracellular trypomastigotes were then removed and NCL compounds were added in seven-point serial dilutions performed in triplicate. Benznidazole (Epichem Pty Ltd.) was included as a control. […] After 4-6 h, a colour change following catabolisation of the reagent by viable T. cruzi was observed and absorbance was read at 530 nm using a Dynex microplate reader. […] For each compound, % inhibition values were used to generate a standard curve from which the IC50 was calculated. Each assay was performed at least twice, and the average was used.", "units": {"IC50": "µM"}, "values": [{"smiles": "N=C(NN=Cc1ccc(Cl)cc1)NN=Cc1cccc(Cl)c1", "note": "[NCL083]", "IC50": 16}, {"smiles": "COc1ccc(C=NNC(=N)NN=Cc2ccc(OC)cc2)cc1", "note": "[NCL027]", "IC50": 14}, {"smiles": "Cc1ccc(C=NNC(=N)NN=Cc2ccc(Cl)cc2)cc1", "note": "[NCL076]", "IC50": 19}, {"smiles": "N=C(NN=Cc1ccccc1Cl)NN=Cc1ccccc1Cl", "note": "[NCL020]", "IC50": 24}, {"smiles": "N#Cc1ccc(C=NNC(=N)NN=Cc2ccc(Cl)cc2)cc1", "note": "[NCL087]", "IC50": 17}, {"smiles": "N#Cc1ccccc1C=NNC(=N)NN=Cc1ccccc1C#N", "note": "[NCL025]", "IC50": 20}, {"smiles": "N=C(NN=Cc1cccc(C(F)(F)F)c1)NN=Cc1cccc(C(F)(F)F)c1", "note": "[NCL037]", "IC50": 16}, {"smiles": "N#Cc1ccccc1C=NNC(=N)NN=Cc1ccc(Cl)cc1", "note": "[NCL085]", "IC50": 20}, {"smiles": "N=C(NN=Cc1ccccc1C(F)(F)F)NN=Cc1ccccc1C(F)(F)F", "note": "[NCL036]", "IC50": 8.3}, {"smiles": "CC(=NNC(=N)NN=Cc1ccc(C(F)(F)F)cc1)c1ccc(C(F)(F)F)cc1", "note": "[NCL075]", "IC50": 15}, {"smiles": "N#Cc1ccccc1C=NNC(=N)N", "note": "[NCL032]", "IC50": 58}]}, {"test_system": "Trypanosoma cruzi (Tulahuen trypomastigotes expressing β-galactosidase, in L6 cells)", "experiment": "In vitro T. cruzi assay for determination of IC50", "assay_type": "cell-based", "conditions": "Trypanosoma cruzi, TULAHUEN, L6; 96 h incubation", "protocol": "as §1", "units": {"IC50": "µM"}, "values": [{"smiles": "COc1cccc(/C=N/NC(=N)N/N=C/c2cccc(OC)c2)c1", "note": "[NCL029]", "IC50": 19}, {"smiles": "N=C(N/N=C/c1cccc(Cl)c1)N/N=C/c1cccc(Cl)c1", "note": "[NCL054]", "IC50": 19}, {"smiles": "N=C(N)N/N=C/c1ccc(Cl)cc1", "note": "[NCL030]", "IC50": 18}, {"smiles": "Cc1ccc(/C=N/NC(=N)N)cc1", "note": "[NCL044]", "IC50": 39}, {"smiles": "N=C(N/N=C/c1ccc(F)cc1)N/N=C/c1ccc(F)cc1", "note": "[NCL021]", "IC50": 16}, {"smiles": "C/C(=N\\NC(=N)N/N=C/c1ccc(Cl)cc1)c1ccc(Cl)cc1", "note": "[NCL081]", "IC50": 20}, {"smiles": "N=C(N/N=C/c1ccc(F)cc1)N/N=C/c1ccc(Cl)cc1", "note": "[NCL079]", "IC50": "> 10"}, {"smiles": "N=C(N)N/N=C/c1cccc(C(F)(F)F)c1", "note": "[NCL043]", "IC50": 16}, {"smiles": "N=C(N/N=C/c1ccc(Cl)cc1)N/N=C/c1ccc(Cl)cc1Cl", "note": "[NCL074]", "IC50": 33}, {"smiles": "Cc1ccc(/C=N/NC(=N)N/N=C/c2ccc(C)cc2)cc1", "note": "[NCL038]", "IC50": 16}, {"smiles": "C/C(=N\\NC(=N)N/N=C(\\C)c1ccc(C(C)(F)F)cc1)c1ccc(Cl)cc1", "note": "[NCL089]", "IC50": 3}, {"smiles": "C/C(=N\\NC(=N)N/N=C/c1ccc(Cl)cc1)c1ccc(C(F)(F)F)cc1", "note": "[NCL080]", "IC50": 7.8}, {"smiles": "C/C(=N\\NC(=N)NN)c1ccc(C(F)(F)F)cc1", "note": "[NCL073]", "IC50": 24}, {"smiles": "N=C(N)N/N=C/c1cccc(Cl)c1", "note": "[NCL052]", "IC50": 15}, {"smiles": "N=C(N/N=C/c1ccc(Cl)cc1)N/N=C/c1ccc(C(F)(F)F)cc1F", "note": "[NCL078]", "IC50": "> 10"}, {"smiles": "N=C(N/N=C/c1ccc(Cl)cc1)N/N=C/c1ccccc1F", "note": "[NCL088]", "IC50": 19}, {"smiles": "N=C(N/N=C/c1cccc(F)c1)N/N=C/c1cccc(F)c1", "note": "[NCL023]", "IC50": 19}, {"smiles": "N=C(NN)N/N=C/c1ccc(Cl)cc1", "note": "[NCL072]", "IC50": 46}, {"smiles": "O=C(N/N=C/c1cccc(C(F)(F)F)c1)N/N=C/c1cccc(C(F)(F)F)c1", "note": "[NCL011]", "IC50": "> 11"}, {"smiles": "Cc1ccccc1/C=N/NC(=N)N/N=C/c1ccccc1C", "note": "[NCL039]", "IC50": 9.9}, {"smiles": "N=C(N/N=C/c1ccc(Cl)cc1)N/N=C/c1ccc(Cl)cc1F", "note": "[NCL084]", "IC50": 22}, {"smiles": "N=C(N/N=C/c1ccc(Cl)cc1)N/N=C/c1ccccc1Cl", "note": "[NCL082]", "IC50": 22}, {"smiles": "Cc1cccc(/C=N/NC(=N)N/N=C/c2cccc(C)c2)c1", "note": "[NCL040]", "IC50": 16}, {"smiles": "N=C(N/N=C/c1ccc(C(F)(F)F)cc1)N/N=C/c1ccc(C(F)(F)F)cc1", "note": "[NCL035]", "IC50": 20}, {"smiles": "N#Cc1cccc(/C=N/NC(=N)N/N=C/c2ccc(Cl)cc2)c1", "note": "[NCL086]", "IC50": 14}]}]}
